Measured values taken from patent publication US20210128529A1, “DRUG CONTAINING PYRAZOLONE DERIVATIVE” (NOBELPHARMA CO., LTD., priority 2017, published 2021).
In brackets after ≈: the same amount, converted by molar mass.

Assay: Saturation solubility of edaravone in water
Format: physicochemical

solubility: 2000 µg/mL (≈ 11.5 mM)
SMILES: CC1=NN(c2ccccc2)C(=O)C1 [edaravone, 3-Methyl-1-phenyl-2-pyrazolin-5-one]
